The subject of assay [1] is Vaccinia-infected cells, mCherry/Venus stage reporter fluorescence. Put plainly: Vaccinia infected cells, stage specific inhibitors, mcherry venus reporter fluorescence, confirmatory dose response (AID 1053168).
Test in assay [2]: as above
To be noted: Vaccinia-infected cells, mCherry/Venus stage reporter fluorescence.

Where [3] appears, read: measured here: mCherry reporter AC50.
Setting [4] is: measured here: Venus reporter AC50.

Structures are written as SMILES. Calls of active or inactive are those of the source. How the calls were made is not given here.

For `COc1ccccc1CN1CC[C@@H]2[C@@H](CO)Nc3ccc(C#Cc4ccccc4)cc3[C@@H]21`, the AC50 in assay [1] and in assay [1] (setting [3]) was 20.9 µM each time. For `COc1ccccc1CN1CC[C@@H]2[C@H]1c1cc(-c3ccc(C(=O)N(C)C)cc3)ccc1N[C@@H]2CO`, the concentration at half-maximal activity (AC50) in assay [1] (setting [3]) is > 42 µM. Also, the activity change, negative = inhibition in assay [2] (at 21 µM (top of the series)) was -27.4% (inactive). Regarding `C[C@H](O)C#Cc1ccc2c(c1)O[C@H](CN(C)Cc1ccccc1)[C@@H](C)CN([C@H](C)CO)S2(=O)=O`, the half-maximal activity concentration (AC50) in assay [1] (setting [3]) is > 42 µM. For the same molecule, in assay [2] (at 21 µM (top of the series)), the activity change, negative = inhibition is -3.87% (inactive). As for `CN1c2ccc(C#Cc3cccnc3)cc2[C@H]2[C@H](CCN2C(=O)C2CCC2)[C@@H]1CO`, the activity change, negative = inhibition in assay [2] (at 21 µM (top of the series)) is -15.9% (inactive). Consider `CN(C)C(=O)c1ccc(-c2cccc(-c3nc(C(=O)NC4CCCC4)cc4c3[C@H](CCO)N([S@@](=O)C(C)(C)C)C4)c2)cc1`, for which, in assay [2] (at 21 µM (top of the series)), the activity change, negative = inhibition is -8.2% (inactive).

In the case of `O=C(Nc1ccc2c(c1)[C@@H]1C[C@@H](CC(=O)N3CCc4ccccc4C3)O[C@@H](CO)[C@@H]1O2)Nc1ccccc1F`, the activity change, negative = inhibition in assay [2] (at 19.5 µM (top of the series)) was -50.6% (inactive). Take `N#Cc1ccc(-c2ccc3c(c2)[C@@H]2[C@@H](CCN2C(=O)C2CCCCC2)[C@@H](CO)N3)cc1`: the concentration at half-maximal activity (AC50) in assay [1] (setting [4]) was > 42 µM. Moreover, the activity change, negative = inhibition in assay [2] (at 21 µM (top of the series)) is -10.8% (inactive). Consider `C[C@@H](O)C#Cc1ccc2c(c1)O[C@@H](CN(C)Cc1ccncc1)[C@@H](C)CN([C@@H](C)CO)S2(=O)=O`, for which the activity change, negative = inhibition in assay [2] (at 21 µM (top of the series)) was 1.8% (inactive). As for `C[C@H]1CN([C@@H](C)CO)S(=O)(=O)c2ccc(C#CC(C)(C)O)cc2O[C@H]1CN(C)Cc1ccc(-c2ccccc2)cc1`, the results for the concentration at half-maximal activity (AC50) in assay [1], in assay [1] (setting [4]) and in assay [1] (setting [3]) were 14.9 µM, 16.6 µM and 14.9 µM, respectively. On to `C[C@@H](O)C#Cc1ccc2c(c1)O[C@@H](CN(C)Cc1ccc(-c3ccccc3)cc1)[C@@H](C)CN([C@@H](C)CO)S2(=O)=O`, for which the AC50 in assay [1] and in assay [1] (setting [3]) was 3.67 µM throughout. Turning to `COc1ccccc1CN1CC[C@@H]2[C@H]1c1cc(C#Cc3ccccc3)ccc1N[C@@H]2CO`, the concentration at half-maximal activity (AC50) in assay [1] and in assay [1] (setting [3]) was 20.7 µM each time.

As to `C[C@H](O)C#Cc1ccc2c(c1)O[C@@H](CN(C)Cc1ccc(-c3ccccc3)cc1)[C@@H](C)CN([C@@H](C)CO)S2(=O)=O`, the concentration at half-maximal activity (AC50) in assay [1] (setting [4]) and in assay [1] (setting [3]) was > 42 µM throughout. Besides, the activity change, negative = inhibition in assay [2] (at 21 µM (top of the series)) is -12.2% (inactive). On to `C[C@H](CO)N1C[C@H](C)[C@H](CN(C)Cc2ccccc2)Oc2cc(C#C[C@@H](C)O)ccc2S1(=O)=O`, for which, in assay [2] (at 21 µM (top of the series)), the activity change, negative = inhibition was 1.54% (inactive). In the case of `CN1c2ccc(C#Cc3cccnc3)cc2[C@H]2[C@H](CCN2C(=O)C2CCCCC2)[C@@H]1CO`, the activity change, negative = inhibition in assay [2] (at 21 µM (top of the series)) was 9.03% (inactive). Consider `C[C@H](CO)N1C[C@H](C)[C@@H](CN(C)Cc2ccc(-c3ccccc3)cc2)Oc2cc(C#C[C@@H](C)O)ccc2S1(=O)=O`, for which the half-maximal activity concentration (AC50) in assay [1] (setting [3]) is > 42 µM. The activity change, negative = inhibition in assay [2] (at 21 µM (top of the series)) is -19.5% (inactive).

Regarding `C[C@H](O)C#Cc1ccc2c(c1)O[C@@H](CN(C)Cc1ccccc1)[C@@H](C)CN([C@@H](C)CO)S2(=O)=O`, the activity change, negative = inhibition in assay [2] (at 21 µM (top of the series)) is -2.82% (inactive). Regarding `CN1c2ccc(-c3ccc(C#N)cc3)cc2[C@@H]2[C@@H](CCN2C(=O)C2CCCCC2)[C@H]1CO`, the half-maximal activity concentration (AC50) in assay [1] (setting [4]) is > 42 µM. Further, in assay [2] (at 21 µM (top of the series)), the activity change, negative = inhibition is -26% (inactive). With `C[C@H](O)C#Cc1ccc2c(c1)O[C@H](CN(C)Cc1ccccc1)[C@@H](C)CN([C@@H](C)CO)S2(=O)=O`, the AC50 in assay [1] (setting [4]) and in assay [1] (setting [3]) was > 42 µM each time. Moreover, in assay [2] (at 21 µM (top of the series)), the activity change, negative = inhibition was -24.7% (inactive).

Regarding `C[C@H](CO)N1C[C@H](C)[C@H](CN(C)Cc2ccc(-c3ccccc3)cc2)Oc2cc(C#C[C@@H](C)O)ccc2S1(=O)=O`, the half-maximal activity concentration (AC50) in assay [1] (setting [4]) and in assay [1] (setting [3]) was > 42 µM in each case. In assay [2] (at 21 µM (top of the series)), the activity change, negative = inhibition was -20% (inactive). In the case of `C[C@H](O)C#Cc1ccc2c(c1)O[C@H](CN(C)Cc1ccccc1)[C@H](C)CN([C@H](C)CO)S2(=O)=O`, the activity change, negative = inhibition in assay [2] (at 21 µM (top of the series)) was -3.27% (inactive). In the case of `CN1c2ccc(C#Cc3cccnc3)cc2[C@H]2[C@H](CCN2C(=O)C2CCCCC2)[C@H]1CO`, the activity change, negative = inhibition in assay [2] (at 21 µM (top of the series)) was 19.5% (inactive). As to `CO[C@H]1CN(C)C(=O)c2ccc(NC(=O)c3ccc(F)cc3)cc2OC[C@H](C)N(C(=O)c2ccc(F)cc2)C[C@@H]1C`, the half-maximal activity concentration (AC50) in assay [1] and in assay [1] (setting [3]) was 15.6 µM throughout. For `Cc1noc(C)c1S(=O)(=O)Nc1ccc2c(c1)C(=O)N([C@@H](C)CO)C[C@@H](C)[C@H](CN(C)S(=O)(=O)c1cccs1)O2`, in assay [2] (at 21 µM (top of the series)), the activity change, negative = inhibition is -3.33% (inactive). For `OC[C@H]1Nc2ccc(-c3cccc(F)c3)cc2[C@H]2[C@@H]1CCN2Cc1ccc(F)cc1`, the AC50 in assay [1] (setting [3]) was > 42 µM. Moreover, in assay [2] (at 21 µM (top of the series)), the activity change, negative = inhibition was -30.8% (inactive). As for `CN1c2ccc(C#Cc3cccnc3)cc2[C@@H]2[C@@H](CCN2C(=O)C2CCC2)[C@H]1CO`, the activity change, negative = inhibition in assay [2] (at 21 µM (top of the series)) was -4.64% (inactive). With `CN1c2ccc(C#Cc3cccnc3)cc2[C@@H]2[C@@H](CCN2C(=O)C2CCC2)[C@@H]1CO`, the activity change, negative = inhibition in assay [2] (at 21 µM (top of the series)) was 10.1% (inactive).

For the origin of these results see PubChem BioAssay AID1053168 (Broad Institute, 2014).
